From patent US10081662B2, “Modified relaxin B chain peptides” (The Florey Institute of Neuroscience and Mental Health, priority 2014, dated 2018)
Peptide text beside a SMILES is read from it.

Columns and labels:
RXFP1 = biological target: T1, RXFP1 (Homo sapiens, UniProt Q9HBX9); test: Eu-labelled H2 relaxin competition binding, whole HEK-293T cells stably transfected with RXFP1; conditions: RXFP1-expressing cells, Eu-labelled H2 relaxin; FIG. 2A
T1 construct: expressed in transfected cells; host or cells: HEK-293T
T1 sequence (Q9HBX9 1-757): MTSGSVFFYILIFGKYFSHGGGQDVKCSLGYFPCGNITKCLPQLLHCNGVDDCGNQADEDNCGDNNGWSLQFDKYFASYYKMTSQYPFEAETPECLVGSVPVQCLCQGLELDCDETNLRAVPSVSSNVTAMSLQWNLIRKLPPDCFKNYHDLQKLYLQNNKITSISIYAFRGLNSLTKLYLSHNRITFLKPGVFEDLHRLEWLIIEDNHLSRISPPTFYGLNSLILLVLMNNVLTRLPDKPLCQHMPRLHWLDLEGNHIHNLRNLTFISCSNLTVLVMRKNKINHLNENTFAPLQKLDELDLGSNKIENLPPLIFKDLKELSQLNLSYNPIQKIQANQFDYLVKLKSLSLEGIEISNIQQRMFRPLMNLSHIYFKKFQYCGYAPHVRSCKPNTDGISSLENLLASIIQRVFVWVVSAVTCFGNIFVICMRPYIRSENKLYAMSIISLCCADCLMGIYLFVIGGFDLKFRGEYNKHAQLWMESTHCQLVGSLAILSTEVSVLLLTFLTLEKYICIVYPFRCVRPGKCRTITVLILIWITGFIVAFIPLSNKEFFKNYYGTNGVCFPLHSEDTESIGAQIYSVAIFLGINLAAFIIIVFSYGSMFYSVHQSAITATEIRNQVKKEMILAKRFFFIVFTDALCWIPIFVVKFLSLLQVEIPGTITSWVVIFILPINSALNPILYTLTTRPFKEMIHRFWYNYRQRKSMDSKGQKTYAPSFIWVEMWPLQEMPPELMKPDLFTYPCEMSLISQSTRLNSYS
Experimental: Human embryonic kidney (HEK-293T) cells stably transfected with RXFP1 were cultured in RPMI 1640 medium supplemented with 10% fetal calf serum, 100 μg/ml penicillin, 100 μg/ml streptomycin and 2 mM L-glutamine and plated into 96-well pre-coated with poly-L-lysine for whole cell binding assays. Competition binding experiments were conducted with Eu^3+-labelled H2 relaxin (as per Shabanpoor et al., 2012, Biochem Biophys Res Commun. 420, 253-256) in the absence or presence of increasing concentrations of unlabelled relaxin-2 B chain derivatives. Nonspecific binding was determined with an excess of unlabelled peptides (500 nM H2 relaxin). Fluorescent measurements were recorded at an excitation wavelength of 340 nm and emission of 614 nm on a Victor plate reader (Perkin-Elmer Inc.). […] Statistical differences in pIC50 values were analyzed using one-way analysis of variance coupled to Newman Keul's multiple comparison test for multiple group comparisons in GraphPad Prism 6.

RXFP2 = biological target: T2, RXFP2 (Homo sapiens, UniProt Q8WXD0); test: cAMP reporter gene assay in HEK-293T cells transfected with RXFP2; format: cell-based; conditions: RXFP1- vs RXFP2-expressing HEK-293T cells; FIG. 3
T2 construct: expressed in transfected cells; host or cells: HEK-293T
T2 sequence (Q8WXD0 whole entry): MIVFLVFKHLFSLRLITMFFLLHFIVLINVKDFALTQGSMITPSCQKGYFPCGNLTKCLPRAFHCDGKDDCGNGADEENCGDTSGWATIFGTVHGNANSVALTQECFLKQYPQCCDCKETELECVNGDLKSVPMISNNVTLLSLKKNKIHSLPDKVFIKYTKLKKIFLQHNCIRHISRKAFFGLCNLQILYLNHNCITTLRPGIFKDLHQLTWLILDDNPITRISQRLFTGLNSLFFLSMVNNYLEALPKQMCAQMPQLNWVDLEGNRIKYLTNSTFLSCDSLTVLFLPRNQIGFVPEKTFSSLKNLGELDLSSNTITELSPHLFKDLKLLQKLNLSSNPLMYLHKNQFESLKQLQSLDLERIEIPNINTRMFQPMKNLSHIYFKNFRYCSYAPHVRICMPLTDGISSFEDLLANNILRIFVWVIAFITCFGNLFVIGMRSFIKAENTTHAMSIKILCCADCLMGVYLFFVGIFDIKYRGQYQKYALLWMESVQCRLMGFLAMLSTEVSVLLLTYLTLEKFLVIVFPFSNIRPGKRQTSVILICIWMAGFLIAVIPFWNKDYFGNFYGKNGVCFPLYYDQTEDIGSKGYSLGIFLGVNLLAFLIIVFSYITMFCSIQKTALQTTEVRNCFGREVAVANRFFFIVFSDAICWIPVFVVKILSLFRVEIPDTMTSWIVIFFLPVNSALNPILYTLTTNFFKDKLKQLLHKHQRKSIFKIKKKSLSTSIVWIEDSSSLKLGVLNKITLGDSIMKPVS
Experimental: The ability of the relaxin-2 B chain peptide derivatives generated in Example 1 to stimulate cAMP response was also evaluated, using a cAMP reporter gene assay as described previously (Scott et al., 2006, J Biol Chem. 281, 34942-34954). HEK-293T cells co-transfected with either RXFP1 or RXFP2, or 7BP cells, and a pCRE β-galactosidase reporter plasmid were plated in 96-well plates. After 24 hours, the co-transfected cells were incubated with increasing concentrations of peptides in parallel to 10 nM of H2 relaxin or INSL3 for RXFP1- or RXFP2-transfected cells respectively. The amount of cAMP-driven β-galactosidase expression in each well was assessed with a colorimetric assay measuring absorbance at 570 nm on a microplate spectrophotometer. Ligand-induced cAMP stimulation was expressed as a percentage of maximal response of H2 relaxin or INSL3 for RXFP1 and RXFP2 cells respectively. Each data point was measured in triplicate and each experiment conducted independently at least three separate times. Statistical differences in pEC50 values were analyzed using one-way ANOVA coupled to Newman Keul's multiple comparison test for multiple group comparisons in GraphPad Prism 6.

ERK1/2 = ERK1/2 phosphorylation (AlphaScreen SureFire) in rat renal myofibroblasts endogenously expressing RXFP1; format: cell-based
Experimental: The inventors then tested the single chain B7-33 C11.23S relaxin-2 peptide for its ability to signal via different pathways, cAMP (see Example 2) and pERK.1/2 on HEK-293T (cells stably expressing RXFP1) and myofibroblast cells (cells endogenously expressing RXFP1) The cAMP assay was conducted as described in Example 2. Phosphorylation of ERK1/2 was determined using AlphaScreen SureFire® assay which is a proprietary, non-radioactive and non-Western proximity assay that relies on singlet oxygen energy transfer (PerkinElmer Inc.). Rat renal fibroblasts (that endogenously express RXFP1 receptor) were seeded into a 96-well plate at a density of 40,000 cells per well and incubated overnight in complete media to allow cell adhesion. Cells were then serum-starved for 4-6 hours followed by native H2 relaxin (100 nM) or B7-33 C11.23S peptide (100 nM) treatment for periods of up to 20 minutes and ERK1/2 activation was quantified using the phospho-ERK1/2 Surefire AlphaScreen kit.

MMP-2 = MMP-2 expression by gelatin zymography in human cardiac fibroblasts; format: cell-based; conditions: gelatin zymography and densitometry
[1] = tested on: RM1 mouse prostate tumour cells; test: Prostate tumour growth after injection of RM1 cells into prostates of C57BL/6 mice; format: in vivo; conditions: day 10 after RM1 cells, s.c. mini-pump from day 2, H2 relaxin 0.15, B7-33 C11.23S 0.075 mg/kg/day, vs untreated
Excerpt: Seven to eight-week old male 129SV mice (which are sensitive to tissue injury and fibrosis) and age-matched female Balb/c mice (which are sensitive to changes in airway hyperresponsiveness) were used for the induction of isoproterenol-induced cardiomyopathy and ovalbumin-induced chronic allergic airways disease, respectively. 16 five week-old male C57BL/6 mice were used in the induction of prostate cancer growth. All animals were obtained from Monash Animal Services (Monash University, Clayton, Victoria, Australia) and housed under standard conditions (maintained on an 12 h light-12 h dark lighting cycle with free access to food and water) in the Department of Pharmacology Animal Room at Monash University.
H2 relaxin can induce prostate and other tumour growth. To measure the effect of B7-33 C11.23S on tumour growth, 16 five week-old male C57BL/6 mice (obtained from Monash Animal Services) were injected with 5000 RM1 (mouse prostate tumor) cells into their prostates to induce tumor growth. One sub-group of mice n=5) was left untreated until day 10 post-RM1 cell administration. […]

CC[C@H](C)[C@H](NC(=O)[C@H](C)NC(=O)[C@@H](NC(=O)[C@H](CCC(N)=O)NC(=O)[C@H](C)NC(=O)[C@H](CCCNC(=N)N)NC(=O)[C@@H](NC(=O)[C@H](CC(C)C)NC(=O)[C@H](CCC(=O)O)NC(=O)[C@H](CCCNC(=N)N)NC(=O)CNC(=O)[C@H](CO)NC(=O)[C@H](CC(C)C)NC(=O)[C@H](CCCCN)NC(=O)[C@@H](NC(=O)[C@@H](N)C(C)C)[C@@H](C)CC)C(C)C)[C@@H](C)CC)C(=O)N[C@@H](CO)C(=O)NCC(=O)N[C@@H](CCSC)C(=O)N[C@@H](CO)C(=O)N[C@H](C(=O)N[C@@H](Cc1c[nH]c2ccccc12)C(=O)N[C@@H](CO)C(=O)N[C@@H](CCCCN)C(=O)N[C@@H](CCCNC(=N)N)C(=O)N[C@@H](CO)C(=O)N[C@@H](CC(C)C)C(N)=O)[C@@H](C)O [B7-33 C11.23S] (H-VIKLSGRELVRAQIAISGMSTWSKRSL-NH2)
Binding to RXFP1 (in words) (RXFP1): binds RXFP1, but with lower affinity than H2 relaxin
Selectivity of cAMP stimulation, RXFP1 over RXFP2 (RXFP2): selective at RXFP1 over RXFP2
pERK potency in rat renal myofibroblast (in words) (ERK1/2; rat renal myofibroblasts natively expressing RXFP1, FIG. 4): very high pERK potency
Time of peak ERK1/2 activation after peptide treatment (ERK1/2; rat renal myofibroblasts, 100 nM peptide): 5 min
ERK1/2 activation, level of efficacy (ERK1/2; rat renal myofibroblasts, 100 nM peptide, up to 20 minutes, FIG. 4): slightly higher level of efficacy as H2 relaxin
Induction of MMP-2 expression (MMP-2): levels similar to those induced by the native H2 relaxin
Prostate tumour size [1]: did not result in changes in tumour size relative to untreated
